Like-named read-outs stand apart in the source and are kept apart here. One block for each compound: values may come before it.
Target: T1, PIP4K2C (Homo sapiens, UniProt Q8TBX8)
T1 sequence (Q8TBX8 1-421): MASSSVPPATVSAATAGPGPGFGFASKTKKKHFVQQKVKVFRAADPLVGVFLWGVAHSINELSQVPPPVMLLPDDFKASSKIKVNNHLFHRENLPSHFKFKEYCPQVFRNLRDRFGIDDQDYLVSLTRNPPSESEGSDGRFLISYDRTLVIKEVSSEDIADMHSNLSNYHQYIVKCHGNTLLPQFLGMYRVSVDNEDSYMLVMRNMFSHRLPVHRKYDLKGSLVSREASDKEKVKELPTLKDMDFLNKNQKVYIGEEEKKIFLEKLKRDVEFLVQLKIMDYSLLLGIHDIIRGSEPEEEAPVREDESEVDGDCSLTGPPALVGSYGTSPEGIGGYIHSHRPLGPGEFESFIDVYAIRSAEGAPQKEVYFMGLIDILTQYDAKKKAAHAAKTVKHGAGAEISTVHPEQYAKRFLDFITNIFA
Assay: HiBiT PIP4K2C degradation assay in MOLT-4 cells (endogenous PIP4K2C C-terminally tagged with HiBiT)
Format: cell-based
Design: untagged in primary human PBMCs and monocyte-derived dendritic cells
Method in brief: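 MOLT-4 knock-in line, HiBiT on PIP4K2C C-terminus; 22,500 cells/well; 10-pt 3-fold titration from 10 micromolar, n=2; 24 h or 6 h, 37 C, 5% CO2; Nano-Glo HiBiT lytic luminescence; DC50 via Hill equation.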

[1] = 6 hours of incubation time, rather than 24 hours; MOLT-4, top concentration 10 micromolar; read-out: HiBIT-degradation MOLT4 PIP4k2C DC50 (6 hours, marked *)

SMILES: O=C1CC[C@@H](Nc2ccc(N3CCC(N4CCC(C(=O)N[C@H]5CC[C@H](Nc6ncc(F)c(-c7cccc(-c8ccc[nH]c8=O)c7)n6)CC5)CC4)CC3)c(F)c2)C(=O)N1 [Compound 577, trans-1′-(4-(((R)-2,6-dioxopiperidin-3-yl)amino)-2-fluorophenyl)-N-((1r,4r)-4-((5-fluoro-4-(3-(2-oxo-1,2-dihydropyridin-3-yl)phenyl)pyrimidin-2-yl)amino)cyclohexyl)-[1,4′-bipiperidine]-4-carboxamide]
DC50 [1]: > 5000 nM

SMILES: O=C1CCC(Nc2ccc(C3CCN(CC4(O)CCN(C(=O)[C@H]5CC[C@H](Nc6ncc(F)c(-c7cccc(-c8ccc[nH]c8=O)c7)n6)CC5)CC4)CC3)c(F)c2)C(=O)N1 (stereo partly drawn) [Compound 581, 3-((3-fluoro-4-(1-((1-(trans-4-((5-fluoro-4-(3-(2-oxo-1,2-dihydropyridin-3-yl)phenyl)pyrimidin-2-yl)amino)cyclohexane-1-carbonyl)-4-hydroxypiperidin-4-yl)methyl)piperidin-4-yl)phenyl)amino)piperidine-2,6-dione]
DC50 [1]: < 500 nM

SMILES: O=C1CCC(Nc2ccc(N3CCN(CC4(O)CCN(C(=O)[C@H]5CC[C@H](Nc6ncc(F)c(-c7cccc(N8CCCCC8=O)c7)n6)CC5)CC4)CC3)c(F)c2)C(=O)N1 (stereo partly drawn) [Compound 582, trans-3-((3-fluoro-4-(4-((1-(4-((5-fluoro-4-(3-(2-oxopiperidin-1-yl)phenyl)pyrimidin-2-yl)amino)cyclohexane-1-carbonyl)-4-hydroxypiperidin-4-yl)methyl)piperazin-1-yl)phenyl)amino)piperidine-2,6-dione]
DC50 [1]: < 500 nM

SMILES: O=C1CCC(Nc2ccc(N3CCN(CC4(O)CCN(C(=O)[C@H]5CC[C@H](Nc6ncc(F)c(-c7cccc(N8CCCOC8=O)c7)n6)CC5)CC4)CC3)c(F)c2)C(=O)N1 (stereo partly drawn) [Compound 583, trans-3-((3-fluoro-4-(4-((1-(4-((5-fluoro-4-(3-(2-oxo-1,3-oxazinan-3-yl)phenyl)pyrimidin-2-yl)amino)cyclohexane-1-carbonyl)-4-hydroxypiperidin-4-yl)methyl)piperazin-1-yl)phenyl)amino)piperidine-2,6-dione]
DC50 [1]: < 500 nM

SMILES: O=C1CCC(Nc2ccc(N3CCN(CC4(O)CCN(C(=O)[C@H]5CC[C@H](Nc6ncc(F)c(-c7cccc(-c8ccc[nH]c8=O)c7)n6)CC5)CC4)CC3)c(F)c2)C(=O)N1 (stereo partly drawn) [Compound 584, trans-3-((3-fluoro-4-(4-((1-(4-((5-fluoro-4-(3-(2-oxo-1,2-dihydropyridin-3-yl)phenyl)pyrimidin-2-yl)amino)cyclohexane-1-carbonyl)-4-hydroxypiperidin-4-yl)methyl)piperazin-1-yl)phenyl)amino)piperidine-2,6-dione]
DC50 [1]: > 5000 nM

SMILES: O=C1CCC(Nc2ccc(N3CCC(N4CCC(C(=O)N[C@H]5CC[C@H](Nc6ncc(F)c(-c7cccc(N8CCOCC8=O)c7)n6)CC5)CC4)CC3)c(F)c2)C(=O)N1 (stereo partly drawn) [Compound 585, trans-1′-(4-((2,6-dioxopiperidin-3-yl)amino)-2-fluorophenyl)-N-(4-((5-fluoro-4-(3-(3-oxomorpholino)phenyl)pyrimidin-2-yl)amino)cyclohexyl)-[1,4′-bipiperidine]-4-carboxamide]
DC50 [1]: < 500 nM

SMILES: O=C1CCC(Nc2ccc(N3CCN(C[C@H]4CC[C@H](CNC(=O)[C@H]5CC[C@H](Nc6ncc(F)c(-c7cccc(N8CCOCC8=O)c7)n6)CC5)CC4)CC3)c(F)c2)C(=O)N1 (stereo partly drawn) [Compound 586, trans-(1r,4R)—N-(((1r,4R)-4-((4-(4-((2,6-dioxopiperidin-3-yl)amino)-2-fluorophenyl)piperazin-1-yl)methyl)cyclohexyl)methyl)-4-((5-fluoro-4-(3-(3-oxomorpholino)phenyl)pyrimidin-2-yl)amino)cyclohexane-1-carboxamide]
DC50 (read-out: HiBIT-degradation MOLT4 PIP4k2C DC50 (6 hours, marked *); 6 hours of incubation time, rather than 24 hours; MOLT-4, top concentration 10 micromolar): < 500 nM

SMILES: O=C1CCC(Nc2ccc(N3CCC(N4CCC(C(=O)N[C@H]5CC[C@H](Nc6ncc(F)c(-c7cccc(N8CCCCC8=O)c7)n6)CC5)CC4)CC3)c(F)c2)C(=O)N1 (stereo partly drawn) [Compound 587, 1′-(4-((2,6-dioxopiperidin-3-yl)amino)-2-fluorophenyl)-N-(trans-4-((5-fluoro-4-(3-(2-oxopiperidin-1-yl)phenyl)pyrimidin-2-yl)amino)cyclohexyl)-[1,4′-bipiperidine]-4-carboxamide]
DC50 [1]: < 500 nM

SMILES: O=C1CCC(Nc2ccc(N3CCN(CC4(O)CCN(C(=O)[C@H]5CC[C@H](Nc6ncc(F)c(-c7cccc(N8CCOCC8=O)c7)n6)CC5)CC4)CC3)c(F)c2)C(=O)N1 (some centres unmarked) [Compound 588]
DC50 [1]: < 500 nM

SMILES: O=C1CCC(Nc2ccc(C3CCN(C[C@H]4CC[C@H](CNC(=O)[C@H]5CC[C@H](Nc6ncc(F)c(-c7cccc(N8CCOCC8=O)c7)n6)CC5)CC4)CC3)c(F)c2)C(=O)N1 (stereo partly drawn) [Compound 589, trans-(1r,4R)—N-(((1r,4R)-4-((4-(4-((2,6-dioxopiperidin-3-yl)amino)-2-fluorophenyl)piperidin-1-yl)methyl)cyclohexyl)methyl)-4-((5-fluoro-4-(3-(3-oxomorpholino)phenyl)pyrimidin-2-yl)amino)cyclohexane-1-carboxamide]
DC50 [1]: < 500 nM

SMILES: O=C1CCC(Nc2ccc(N3CCN(C[C@H]4CC[C@H](CNC(=O)[C@H]5CC[C@H](Nc6ncc(F)c(-c7cccc(N8CCCCC8=O)c7)n6)CC5)CC4)CC3)c(F)c2)C(=O)N1 (stereo partly drawn) [Compound 590, trans-(1r,4R)—N-(((1r,4R)-4-((4-(4-((2,6-dioxopiperidin-3-yl)amino)-2-fluorophenyl)piperazin-1-yl)methyl)cyclohexyl)methyl)-4-((5-fluoro-4-(3-(2-oxopiperidin-1-yl)phenyl)pyrimidin-2-yl)amino)cyclohexane-1-carboxamide]
DC50 [1]: < 500 nM

More lines, now with the values ahead:

DC50 [1]: < 500 nM
SMILES: Cc1ccc(=O)n(-c2cccc(-c3nc(N[C@H]4CC[C@H](NC(=O)[C@H]5CC[C@H](N6CCC(c7ccc(NC8CCC(=O)NC8=O)cc7F)CC6)CC5)CC4)ncc3F)c2)c1 (stereo partly drawn) [Compound 574, trans-(1r,4R)-4-(4-(4-((2,6-dioxopiperidin-3-yl)amino)-2-fluorophenyl)piperidin-1-yl)-N-((1r,4R)-4-((5-fluoro-4-(3-(5-methyl-2-oxopyridin-1 (2H)-yl)phenyl)pyrimidin-2-yl)amino)cyclohexyl)cyclohexane-1-carboxamide]

DC50 [1]: < 500 nM
SMILES: O=C1CCC(Nc2ccc(N3CCC(N4CC5(CC(C(=O)N[C@H]6CC[C@H](Nc7ncc(F)c(-c8cccc(-n9ccccc9=O)c8)n7)CC6)C5)C4)CC3)c(F)c2)C(=O)N1 (stereo partly drawn) [Compound 575, trans-2-(1-(4-((2,6-dioxopiperidin-3-yl)amino)-2-fluorophenyl)piperidin-4-yl)-N-((1r,4r)-4-((5-fluoro-4-(3-(2-oxopyridin-1(2H)-yl)phenyl)pyrimidin-2-yl)amino)cyclohexyl)-2-azaspiro[3.3]heptane-6-carboxamide]

DC50 [1]: < 500 nM
SMILES: O=C1CCC(Nc2ccc(C3CCN([C@H]4CC[C@H](C(=O)N[C@H]5CC[C@H](Nc6ncc(F)c(-c7cccc(N8CCCOC8=O)c7)n6)CC5)CC4)CC3)c(F)c2)C(=O)N1 (stereo partly drawn) [Compound 576, trans-(1r,4R)-4-(4-(4-((2,6-dioxopiperidin-3-yl)amino)-2-fluorophenyl)piperidin-1-yl)-N-((1r,4R)-4-((5-fluoro-4-(3-(2-oxo-1,3-oxazinan-3-yl)phenyl)pyrimidin-2-yl)amino)cyclohexyl)cyclohexane-1-carboxamide]

DC50 [1]: < 500 nM
SMILES: O=C1CCC(Nc2ccc(C3CCN(CC4(O)CCN(C(=O)[C@H]5CC[C@H](Nc6ncc(F)c(-c7cccc(N8CCOCC8=O)c7)n6)CC5)CC4)CC3)c(F)c2)C(=O)N1 (stereo partly drawn) [Compound 578, trans-3-((3-fluoro-4-(1-((1-(4-((5-fluoro-4-(3-(3-oxomorpholino)phenyl)pyrimidin-2-yl)amino)cyclohexane-1-carbonyl)-4-hydroxypiperidin-4-yl)methyl)piperidin-4-yl)phenyl)amino)piperidine-2,6-dione]

DC50 [1]: < 500 nM
SMILES: O=C1CCC(Nc2ccc(C3CCN(CC4(O)CCN(C(=O)[C@H]5CC[C@H](Nc6ncc(F)c(-c7cccc(N8CCCCC8=O)c7)n6)CC5)CC4)CC3)c(F)c2)C(=O)N1 (stereo partly drawn) [Compound 579, 3-((3-fluoro-4-(1-((1-(trans-4-((5-fluoro-4-(3-(2-oxopiperidin-1-yl)phenyl)pyrimidin-2-yl)amino)cyclohexane-1-carbonyl)-4-hydroxypiperidin-4-yl)methyl)piperidin-4-yl)phenyl)amino)piperidine-2,6-dione]

DC50 [1]: < 500 nM
SMILES: O=C1CCC(Nc2ccc(C3CCN(CC4(O)CCN(C(=O)[C@H]5CC[C@H](Nc6ncc(F)c(-c7cccc(N8CCCOC8=O)c7)n6)CC5)CC4)CC3)c(F)c2)C(=O)N1 (stereo partly drawn) [Compound 580, trans-3-((3-fluoro-4-(1-((1-(4-((5-fluoro-4-(3-(2-oxo-1,3-oxazinan-3-yl)phenyl)pyrimidin-2-yl)amino)cyclohexane-1-carbonyl)-4-hydroxypiperidin-4-yl)methyl)piperidin-4-yl)phenyl)amino)piperidine-2,6-dione]

From US20260355196A1, “INHIBITORS AND DEGRADERS OF PIP4K PROTEIN” (Larkspur Biosciences, Inc., priority 2023, published 2026)
